Source: patent US9469650B2, “Melampomagnolide B derivatives” (BOARD OF TRUSTEES OF THE UNIVERSITY OF ARKANSAS, priority 2013, dated 2016)

Assays:
SK-MEL-5 = assay: panel of 60 human tumor cell lines, growth inhibition (Melanoma); conditions: for Percent Growth: 8K-MEL-5
ACHN = assay: panel of 60 human tumor cell lines, growth inhibition (Renal Cancer)
SN12C = assay: as above
LOX IMVI = assay: panel of 60 human tumor cell lines, growth inhibition (Melanoma)
U251 = assay: panel of 60 human tumor cell lines, growth inhibition (CNS Cancer); conditions: for Percent Growth: U251
MDA-MB-435 = assay: panel of 60 human tumor cell lines, growth inhibition (Melanoma)
CCRF-CEM = assay: panel of 60 human tumor cell lines, growth inhibition (Leukemia)
HCC-2998 = assay: panel of 60 human tumor cell lines, growth inhibition (Colon Cancer); conditions: for Percent Growth: HCC-2998
SK-OV-3 = assay: panel of 60 human tumor cell lines, growth inhibition (Ovarian Cancer)
M14 = assay: panel of 60 human tumor cell lines, growth inhibition (Melanoma)
MCF7 = assay: panel of 60 human tumor cell lines, growth inhibition (Breast Cancer); conditions: for Percent Growth: MCF7
NCI-H226 = assay: panel of 60 human tumor cell lines, growth inhibition (Non-Small Cell Lung Cancer)
SR = assay: panel of 60 human tumor cell lines, growth inhibition (Leukemia)
OVCAR-8 = assay: panel of 60 human tumor cell lines, growth inhibition (Ovarian Cancer)
NCI-H460 = assay: panel of 60 human tumor cell lines, growth inhibition (Non-Small Cell Lung Cancer)
786-0 = assay: panel of 60 human tumor cell lines, growth inhibition (Renal Cancer)
HOP-62 = assay: panel of 60 human tumor cell lines, growth inhibition (Non-Small Cell Lung Cancer)
MDA-MB-231/ATCC = assay: panel of 60 human tumor cell lines, growth inhibition (Breast Cancer); conditions: for Percent Growth: MDA-MB-231/ATCC
UO-31 = assay: panel of 60 human tumor cell lines, growth inhibition (Renal Cancer)

## C=C1C(=O)O[C@H]2[C@H]1CC/C(COC(=O)CCC(=O)NCc1ccc(Cl)nc1)=C\CC[C@@]1(C)O[C@@H]21 [JVM 96]
SK-MEL-5; Log10 Concentration −4.0
  Percent Growth: −89%
SK-MEL-5; Log10 Concentration −5.0
  Percent Growth: 53%
SK-MEL-5; Log10 Concentration −7.0
  Percent Growth: 98%
SK-MEL-5; Log10 Concentration −8.0
  Percent Growth: 97%
SK-MEL-5; Homo sapiens, SK-MEL-5
  GI50: 10.5 µM
SK-MEL-5; Homo sapiens, SK-MEL-5, read-out: LC50
  CC50: 53.1 µM
SK-MEL-5; Homo sapiens, SK-MEL-5, read-out: TGI
  IC (TGI): 23.7 µM
ACHN; Homo sapiens
  GI50: 4.45 µM
ACHN; Homo sapiens, read-out: LC50
  CC50: 51.9 µM
ACHN; Homo sapiens, read-out: TGI
  IC (TGI): 17.9 µM
ACHN; Log10 Concentration −4.0
  Percent Growth: −81%
ACHN; Log10 Concentration −5.0
  Percent Growth: 27%
ACHN; Log10 Concentration −6.0
  Percent Growth: 92%
ACHN; Log10 Concentration −7.0
  Percent Growth: 94%
ACHN; Log10 Concentration −8.0
  Percent Growth: 98%
SN12C; Homo sapiens
  GI50: 12.5 µM
SN12C; Homo sapiens, read-out: LC50
  CC50: > 100 µM
SN12C; Homo sapiens, read-out: TGI
  IC (TGI): 40.4 µM
SN12C; Log10 Concentration −4.0
  Percent Growth: −39%
SN12C; Log10 Concentration −5.0
  Percent Growth: 59%
SN12C; Log10 Concentration −6.0
  Percent Growth: 95%
SN12C; Log10 Concentration −7.0
  Percent Growth: 100%
SN12C; Log10 Concentration −8.0
  Percent Growth: 97%
LOX IMVI; Homo sapiens
  GI50: 4.74 µM
LOX IMVI; Homo sapiens, read-out: LC50
  CC50: 47 µM
LOX IMVI; Homo sapiens, read-out: TGI
  IC (TGI): 16.7 µM
LOX IMVI; Log10 Concentration −4.0
  Percent Growth: −86%
LOX IMVI; Log10 Concentration −5.0
  Percent Growth: 25%
LOX IMVI; Log10 Concentration −6.0
  Percent Growth: 103%
LOX IMVI; Log10 Concentration −7.0
  Percent Growth: 98%
LOX IMVI; Log10 Concentration −8.0
  Percent Growth: 98%
U251; Homo sapiens, U-251
  GI50: 16.7 µM
U251; Homo sapiens, U-251, read-out: LC50
  CC50: 64.5 µM
U251; Homo sapiens, U-251, read-out: TGI
  IC (TGI): 32.8 µM
U251; Log10 Concentration −4.0
  Percent Growth: −82%
U251; Log10 Concentration −5.0
  Percent Growth: 88%
U251; Log10 Concentration −6.0
  Percent Growth: 99%
U251; Log10 Concentration −7.0
  Percent Growth: 93%
U251; Log10 Concentration −8.0
  Percent Growth: 92%
MDA-MB-435; Homo sapiens, MDA-MB-435
  GI50: 4.95 µM
MDA-MB-435; Homo sapiens, MDA-MB-435, read-out: LC50
  CC50: 61.9 µM
MDA-MB-435; Homo sapiens, MDA-MB-435, read-out: TGI
  IC (TGI): 20.4 µM
MDA-MB-435; MDA-MB-435, Log10 Concentration −4.0
  Percent Growth: −72%
MDA-MB-435; MDA-MB-435, Log10 Concentration −5.0
  Percent Growth: 32%
MDA-MB-435; MDA-MB-435, Log10 Concentration −6.0
  Percent Growth: 90%
MDA-MB-435; MDA-MB-435, Log10 Concentration −7.0
  Percent Growth: 89%
MDA-MB-435; MDA-MB-435, Log10 Concentration −8.0
  Percent Growth: 97%
CCRF-CEM; Homo sapiens
  GI50: 2.2 µM
CCRF-CEM; Homo sapiens, read-out: LC50
  CC50: > 100 µM
CCRF-CEM; Homo sapiens, read-out: TGI
  IC (TGI): 7.66 µM
CCRF-CEM; Log10 Concentration −4.0
  Percent Growth: −49%
CCRF-CEM; Log10 Concentration −5.0
  Percent Growth: −11%
CCRF-CEM; Log10 Concentration −6.0
  Percent Growth: 82%
CCRF-CEM; Log10 Concentration −7.0
  Percent Growth: 100%
CCRF-CEM; Log10 Concentration −8.0
  Percent Growth: 99%
HCC-2998; Log10 Concentration −4.0
  Percent Growth: −90%
HCC-2998; Log10 Concentration −5.0
  Percent Growth: 76%
HCC-2998; Log10 Concentration −6.0
  Percent Growth: 108%
HCC-2998; Log10 Concentration −7.0
  Percent Growth: 101%
HCC-2998; Log10 Concentration −8.0
  Percent Growth: 99%
HCC-2998; Homo sapiens, HCC 2998
  GI50: 14.4 µM
HCC-2998; Homo sapiens, HCC 2998, read-out: LC50
  CC50: 57.3 µM
HCC-2998; Homo sapiens, HCC 2998, read-out: TGI
  IC (TGI): 28.7 µM
SK-OV-3; Homo sapiens, SK-OV-3
  GI50: 28 µM
SK-OV-3; Homo sapiens, SK-OV-3, read-out: LC50
  CC50: > 100 µM
SK-OV-3; Homo sapiens, SK-OV-3, read-out: TGI
  IC (TGI): 70.5 µM
SK-OV-3; SK-OV-3, Log10 Concentration −4.0
  Percent Growth: −19%
SK-OV-3; SK-OV-3, Log10 Concentration −5.0
  Percent Growth: 106%
SK-OV-3; SK-OV-3, Log10 Concentration −6.0
  Percent Growth: 106%
SK-OV-3; SK-OV-3, Log10 Concentration −7.0
  Percent Growth: 104%
SK-OV-3; SK-OV-3, Log10 Concentration −8.0
  Percent Growth: 99%
M14; Homo sapiens, M14
  GI50: 5.75 µM
M14; Homo sapiens, M14, read-out: LC50
  CC50: 50.3 µM
M14; Homo sapiens, M14, read-out: TGI
  IC (TGI): 19.5 µM
M14; M14, Log10 Concentration −4.0
  Percent Growth: −86%
M14; M14, Log10 Concentration −5.0
  Percent Growth: 35%
M14; M14, Log10 Concentration −6.0
  Percent Growth: 96%
M14; M14, Log10 Concentration −7.0
  Percent Growth: 91%
M14; M14, Log10 Concentration −8.0
  Percent Growth: 98%
MCF7; Homo sapiens, MCF7, MCF7
  GI50: 3.2 µM
MCF7; Homo sapiens, MCF7, read-out: LC50
  CC50: 58.9 µM
MCF7; Homo sapiens, MCF7, read-out: TGI
  IC (TGI): 13.6 µM
MCF7; Log10 Concentration −4.0
  Percent Growth: −68%
MCF7; Log10 Concentration −5.0
  Percent Growth: 10%
MCF7; Log10 Concentration −6.0
  Percent Growth: 90%
MCF7; Log10 Concentration −7.0
  Percent Growth: 89%
MCF7; Log10 Concentration −8.0
  Percent Growth: 90%
NCI-H226; Homo sapiens, NCI-H226
  GI50: 12.7 µM
NCI-H226; Homo sapiens, NCI-H226, read-out: TGI
  IC (TGI): 32 µM
NCI-H226; NCI-H226, Log10 Concentration −4.0
  Percent Growth: −61%
NCI-H226; NCI-H226, Log10 Concentration −5.0
  Percent Growth: 63%
NCI-H226; NCI-H226, Log10 Concentration −6.0
  Percent Growth: 94%
NCI-H226; NCI-H226, Log10 Concentration −7.0
  Percent Growth: 97%
NCI-H226; NCI-H226, Log10 Concentration −8.0
  Percent Growth: 96%
SR; Homo sapiens
  GI50: 2.59 µM
SR; Homo sapiens, read-out: LC50
  CC50: > 100 µM
SR; Homo sapiens, read-out: TGI
  IC (TGI): 18 µM
SR; Log10 Concentration −4.0
  Percent Growth: −35%
SR; Log10 Concentration −5.0
  Percent Growth: 12%
SR; Log10 Concentration −6.0
  Percent Growth: 77%
SR; Log10 Concentration −7.0
  Percent Growth: 90%
SR; Log10 Concentration −8.0
  Percent Growth: 84%
OVCAR-8; Homo sapiens, OVCAR-8
  GI50: 12.5 µM
OVCAR-8; Homo sapiens, OVCAR-8, read-out: LC50
  CC50: 72 µM
OVCAR-8; Homo sapiens, OVCAR-8, read-out: TGI
  IC (TGI): 30 µM
OVCAR-8; OVCAR-8, Log10 Concentration −4.0
  Percent Growth: −69%
OVCAR-8; OVCAR-8, Log10 Concentration −5.0
  Percent Growth: 63%
OVCAR-8; OVCAR-8, Log10 Concentration −6.0
  Percent Growth: 105%
OVCAR-8; OVCAR-8, Log10 Concentration −7.0
  Percent Growth: 95%
OVCAR-8; OVCAR-8, Log10 Concentration −8.0
  Percent Growth: 95%
NCI-H460; Homo sapiens, NCI-H460
  GI50: 21.3 µM
NCI-H460; Homo sapiens, NCI-H460, read-out: LC50
  CC50: > 100 µM
NCI-H460; Homo sapiens, NCI-H460, read-out: TGI
  IC (TGI): 53.9 µM
NCI-H460; NCI-H460, Log10 Concentration −4.0
  Percent Growth: −33%
NCI-H460; NCI-H460, Log10 Concentration −5.0
  Percent Growth: 91%
NCI-H460; NCI-H460, Log10 Concentration −6.0
  Percent Growth: 101%
NCI-H460; NCI-H460, Log10 Concentration −7.0
  Percent Growth: 102%
NCI-H460; NCI-H460, Log10 Concentration −8.0
  Percent Growth: 102%
786-0; 786-0, Log10 Concentration −4.0
  Percent Growth: −91%
786-0; 786-0, Log10 Concentration −5.0
  Percent Growth: 26%
786-0; 786-0, Log10 Concentration −6.0
  Percent Growth: 94%
786-0; 786-0, Log10 Concentration −7.0
  Percent Growth: 92%
786-0; 786-0, Log10 Concentration −8.0
  Percent Growth: 94%
786-0; Homo sapiens, 786-0
  GI50: 4.43 µM
786-0; Homo sapiens, 786-0, read-out: LC50
  CC50: 44.4 µM
786-0; Homo sapiens, 786-0, read-out: TGI
  IC (TGI): 16.6 µM
HOP-62; HOP-62, Log10 Concentration −4.0
  Percent Growth: −53%
HOP-62; HOP-62, Log10 Concentration −5.0
  Percent Growth: 95%
HOP-62; HOP-62, Log10 Concentration −6.0
  Percent Growth: 98%
HOP-62; HOP-62, Log10 Concentration −7.0
  Percent Growth: 93%
HOP-62; HOP-62, Log10 Concentration −8.0
  Percent Growth: 95%
HOP-62; Homo sapiens, HOP-62
  GI50: 20.1 µM
HOP-62; Homo sapiens, HOP-62, read-out: LC50
  CC50: 95.2 µM
HOP-62; Homo sapiens, HOP-62, read-out: TGI
  IC (TGI): 43.7 µM
MDA-MB-231/ATCC; Homo sapiens, MDA-MB-231
  GI50: 6.19 µM
MDA-MB-231/ATCC; Homo sapiens, MDA-MB-231, read-out: LC50
  CC50: 61.5 µM
MDA-MB-231/ATCC; Homo sapiens, MDA-MB-231, read-out: TGI
  IC (TGI): 22.2 µM
MDA-MB-231/ATCC; Log10 Concentration −4.0
  Percent Growth: −74%
MDA-MB-231/ATCC; Log10 Concentration −5.0
  Percent Growth: 39%
MDA-MB-231/ATCC; Log10 Concentration −6.0
  Percent Growth: 91%
MDA-MB-231/ATCC; Log10 Concentration −7.0
  Percent Growth: 96%
MDA-MB-231/ATCC; Log10 Concentration −8.0
  Percent Growth: 97%
UO-31; Homo sapiens, UO-31
  GI50: 10.2 µM
UO-31; Homo sapiens, UO-31, read-out: LC50
  CC50: 53.7 µM
UO-31; Homo sapiens, UO-31, read-out: TGI
  IC (TGI): 23.4 µM
UO-31; UO-31, Log10 Concentration −4.0
  Percent Growth: −87%
UO-31; UO-31, Log10 Concentration −5.0
  Percent Growth: 51%
UO-31; UO-31, Log10 Concentration −6.0
  Percent Growth: 92%
UO-31; UO-31, Log10 Concentration −7.0
  Percent Growth: 88%
UO-31; UO-31, Log10 Concentration −8.0
  Percent Growth: 87%
